Tests used:
Format in all cases: physicochemical
[1] = Hygroscopicity by dynamic vapor sorption (DVS), Example 4
Description: The hygroscopicity of Phosphate Polymorph Form A was measured by Dynamic vapor sorption (DVS). […] After DVS, XRPD confirmed that the crystalline form was retained (FIG. 19).

[2] = Slow cooling crystallization (Example 64); conditions: slow cooling to RT
Text: The suspensions were filtered to obtain saturated solution, and it was kept in an oil bath to cool to RT. The solids obtained were characterized.
The suspensions were filtered to obtain a saturated solution, and it was kept in an oil bath which was allowed to cool to RT naturally. Any solids obtained were characterized. […] No new phosphate Form was obtained.

[3] = One week accelerated stability testing (Example 3)
Description: The stability of Phosphate Polymorphic Form A and Free Base Polymorphic Form A were evaluated under accelerated conditions.

[4] = Fast cooling crystallization (Example 63); conditions: fast cooling to 4° C. or −20° C.
Description: The suspensions were filtered to obtain saturated solution which was cooled to final temperature (4° C. or −20° C.) immediately and characterized.
The suspensions were filtered to obtain saturated solutions which were immediately cooled to final temperature (4° C. or −20° C.). Any solids obtained were characterized.

[5] = Intrinsic dissolution rate in SGF (Example 16); conditions: 37° C., 100 rpm, linear scope within 2 to 120 min
Description: About 100 mg of Free Base Polymorphic Form A or Phosphate Polymorphic Form A was weighed into the intrinsic dissolution apparatus and the sample compressed for 1 minute with a compression force of ˜4 MPa to form a compacted pellet within the stainless-steel die. All loose powder was removed from the surface of the die. The intrinsic dissolution shaft was connected with the stainless-steel die and tightened so only one surface of the pellet was exposed (surface area=0.496 cm^2). The shaft in the spindle was adjusted to ensure the exposed surface of the compacted tablet was ˜3.8 cm from the bottom of the vessel when lowered. The temperature of chamber water was set at 37° C.±0.5° C., the shaft rotation at 100 rpm and the sampling time points at 2, 5, 10, 15, 30, 45, 60, 120 min. SGF was used as dissolution medium (900 mL). At each time point, solution samples were filtered, and the supernatant was analyzed by HPLC-UV.

[6] = Mechanical treatment (grinding) of Phosphate Form A; conditions: for crystal form after grinding (XRPD): ground manually with mortar and pestle, 3-5 minutes
Text: The crystal form was unchanged after grinding.

[7] = Slurry and stability study of phosphate (30.4, Example 35); conditions: IPAC, EA
Text: The suspensions were filtered and characterized by XRPD.

[8] = Polymer induced crystallization (Example 67); conditions: evaporative crystallization at RT, ~10% polymer
Description: Then ˜10% of polymer was added into clear solution. The mixture was evaporated to dryness at RT. The solid was isolated and characterized.
No new phosphate form was obtained.

[9] = Solid-state stability of Phosphate Form A at 40° C./75% RH and 25° C./95% RH (Example 36); conditions: up to two weeks
[10] = Liquid vapor diffusion (Example 61); conditions: RT, 6 days
Text: After filtration, the filtrate in a small vial was put into a bigger vial containing anti-solvent. The bigger vial was left at RT for days. If precipitation occurred, solid was collected and characterized.
After filtration, the filtrate was transferred into a small vial, which was then placed inside a bigger vial which contained anti-solvent. The bigger vial was left at RT for 6 days. If precipitation occurred, solid was collected and characterized. No new phosphate form was obtained.

[11] = solvent 2-methyl tetrahydrofuran

Which results are given for `CC(C)(O)c1cnn2c(-c3ccc(F)c(-c4c(F)cccc4C#N)c3)cnc2n1` [Phosphate Polymorphic Form A, 2′,6-difluoro-5′-[3-(1-hydroxy-1-methylethyl)-imidazo[1,2-b][1,2,4]triazin-7-yl]biphenyl-2-carbonitrile]?
crystalline form after DVS (XRPD) [1]: retained; reversible mass increase (DVS) [1]: about 1.08%; Result (solid form obtained) ([2]; solvent 2-butanone): Phosphate Form A; Result (solid form obtained) [2, 11]: No solid; Result (solid form obtained) ([2]; solvent ACN): Phosphate Form A; Result (solid form obtained) ([2]; solvent Anisole): No solid; Result (solid form obtained) ([2]; solvent BAC): Phosphate Form A; Result (solid form obtained) ([2]; solvent Butanol): Free Base Form E; Result (solid form obtained) ([2]; solvent EA): No solid; Result (solid form obtained) ([2]; solvent Isoamyl alcohol): Free Base Form E; Result (solid form obtained) ([2]; solvent MAC): No solid; Result (solid form obtained) ([2]; solvent THF): No solid; Assay (%) ([3]; 40° C./75% RH (open), 1 week): 97.12%; Purity (%) ([3]; 40° C./75% RH (open), 1 week): 99.02%; Assay (%) ([3]; 80° C. (open), 1 week): 95.99%; Purity (%) ([3]; 80° C. (open), 1 week): 98.94%; Purity (%) ([3]; Initial): 98.91%; Assay (%) ([3]; Initial, assay criterion 95%-105%): 104.60%; Assay (%) ([3]; Light, ~50 h): 95.25%; Purity (%) ([3]; Light, ~50 h): 97.55%; Result (solid form obtained) ([4]; solvent 1,4-dioxane): No solid; Result (solid form obtained) ([4]; solvent 1-methyl-2-pyrrolidone): No solid; Result (solid form obtained) ([4]; solvent 2-butanone): Phosphate Form A; Result (solid form obtained) [4, 11]: No solid; Result (solid form obtained) ([4]; solvent 4-methyl-2-pentanone): Phosphate Form A; Result (solid form obtained) ([4]; solvent ACN): Phosphate Form A; Result (solid form obtained) ([4]; solvent Acetone): Phosphate Form A; Result (solid form obtained) ([4]; solvent Anisole): No solid; Result (solid form obtained) ([4]; solvent BAC): Phosphate Form A; Result (solid form obtained) ([4]; solvent Butanol): Freebase form A; Result (solid form obtained) ([4]; solvent DMF): No solid; Result (solid form obtained) ([4]; solvent DMSO): No solid; Result (solid form obtained) ([4]; solvent EA): Phosphate Form A; Result (solid form obtained) ([4]; solvent Ethyl formate): Phosphate Form A; Result (solid form obtained) ([4]; solvent Isoamyl alcohol): New Free Base pattern K; Result (solid form obtained) ([4]; solvent MAC): Phosphate Form A; Result (solid form obtained) ([4]; solvent MEK): Phosphate Form A; Result (solid form obtained) ([4]; solvent Propyl acetate): Phosphate Form A; Result (solid form obtained) ([4]; solvent THF): No solid; intrinsic dissolution rate [5]: 0.184 mg·cm^−2min^−1; crystallinity after grinding [6]: decreased; crystal form after grinding (XRPD) ([6]; listed as Phosphate Form A): unchanged; crystal form after grinding (XRPD) ([6]; listed as TPA023B Phosphate Form A): remained unchanged; crystal form after grinding (XRPD) ([6]; listed as phosphate Form A): no change; crystal form after slurry (XRPD) ([7]; 100 mg slurried in 2 mL THF, 2-Me THF, acetone and ACN at RT): remains unchanged; stability in solvents ([7]; THF, 2-Me-THF, Acetone, MTBE or ACN): stable; Result (solid form obtained) ([8]; solvent MEK, polymer EC (Ethyl cellulose)): Phosphate Form A; Result (solid form obtained) ([8]; solvent MEK, polymer PAA Poly(acrylic acid)): Phosphate Form A; Result (solid form obtained) ([8]; solvent MEK, polymer PEG4000, listed as Phosphate Form A): Free Base Form F; Result (solid form obtained) ([8]; solvent MEK, polymer PVP-K30 (Polyvinyl pyrrolidone), listed as Phosphate Form A): Free Base Form F; Result (solid form obtained) ([8]; solvent THF, polymer EC): Phosphate Form A; Result (solid form obtained) ([8]; solvent THF, polymer PAA Poly): Phosphate Form A; Result (solid form obtained) ([8]; solvent THF, polymer PEG4000): Phosphate Form A; Result (solid form obtained) ([8]; solvent THF, polymer PVP-K30): Phosphate Form 1A; crystal form after storage ([9]; 25° C./95% RH): remained unchanged; crystal form after storage ([9]; 40° C./75% RH): remained unchanged; Result (solid form obtained) ([10]; solvent 2-methyl tetrahydrofuran, anti-solvent Chloroform): Phosphate Form A; Result (solid form obtained) ([10]; solvent 2-methyl tetrahydrofuran, anti-solvent Methyl cyclohexane): Phosphate Form A; Result (solid form obtained) ([10]; solvent 2-methyl tetrahydrofuran, anti-solvent xylene): Phosphate Form A; Result (solid form obtained) ([10]; solvent DMAC, anti-solvent DCM): No solid; Result (solid form obtained) ([10]; solvent DMAC, anti-solvent EA): No solid; Result (solid form obtained) ([10]; solvent DMAC, anti-solvent Isopropyl ether): No solid; Result (solid form obtained) ([10]; solvent Diox, anti-solvent ACN): No solid; Result (solid form obtained) ([10]; solvent Diox, anti-solvent BAC): Phosphate Form A; Result (solid form obtained) ([10]; solvent Diox, anti-solvent DCM): Phosphate Form A; Result (solid form obtained) ([10]; solvent Diox, anti-solvent Heptane): Phosphate Form A; Result (solid form obtained) ([10]; solvent Diox, anti-solvent Isopropyl ether): Phosphate Form A; Result (solid form obtained) ([10]; solvent MEK, anti-solvent Cyclohexanone): Phosphate Form A; Result (solid form obtained) ([10]; solvent MEK, anti-solvent DCM): Phosphate Form A; Result (solid form obtained) ([10]; solvent MEK, anti-solvent MAC): No solid; Result (solid form obtained) ([10]; solvent MEK, anti-solvent MTBE): No solid; Result (solid form obtained) ([10]; solvent MEK, anti-solvent Trichloromethane): Phosphate Form A; Result (solid form obtained) ([10]; solvent NMP, anti-solvent Chloroform): No solid; Result (solid form obtained) ([10]; solvent NMP, anti-solvent Isopropyl ether): No solid; Result (solid form obtained) ([10]; solvent NMP, anti-solvent MEK): No solid; Result (solid form obtained) ([10]; solvent THF, anti-solvent ACN): No solid; Result (solid form obtained) ([10]; solvent THF, anti-solvent EA): Phosphate Form A; Result (solid form obtained) ([10]; solvent THF, anti-solvent N-pentane): Phosphate Form A; Result (solid form obtained) ([10]; solvent THF, anti-solvent Toluene): Phosphate Form A; Result (solid form obtained) ([10]; solvent THF, anti-solvent Trichloromethane): No solid

Source: US12617794B2, “GABAA positive allosteric modulator compounds, methods of making, and uses thereof” (NEUROCYCLE THERAPEUTICS, INC., priority 2019, dated 2026)
